Laboratory results: a melting point compilation (Tetko et al.; mined from patent text by program, amines drawn as free bases though some values may be those of a salt)

SMILES	melting point [°C]
COCC(=O)N(C)c1cccc(OCc2ccccc2)c1[N+](=O)[O-]	111 to 112
CCOCN1C(C)=C(C(=O)OC)C(c2cccc([N+](=O)[O-])c2)C(C(=O)OC)=C1C	86 to 88
O=C(Nc1ccc(F)cc1)c1ccccc1Cl	93.3 to 96.2
O=C(CO)NNc1ccnc2c(NC(=O)c3c(Cl)cccc3Cl)cccc12	248 to 250
CC1(C)CCCC(NC(=O)OC(C)(C)C)C(=O)N1 (configuration not stated)	118 to 120
O=C(O)c1nc(-c2ccc(Cl)cc2Cl)n(-c2ccc(Cl)cc2)c1CO	138
CCN(C(=O)OC(C)(C)C)C1CC=C(c2c[nH]c3ccc([N+](=O)[O-])cc23)CC1 (configuration not stated)	217 to 219
COc1nc(CNC(=O)NS(=O)(=O)c2ccccc2S(=O)(=O)N(C)C)nc(OC)n1	183 to 189
Cn1nc(-c2ccc(F)cc2)c(-c2ccncc2)c1NC(=O)Cc1ccc(O)cc1	127 to 129
CCC(CC)N(O)C(=O)NC(C)(C)c1cccc(C(C)(C)NC(=O)N(O)C(CC)CC)c1	170 to 172
CCO[C@@H](Cc1ccc(OCCc2nc(-c3ccc(C(F)(F)F)cc3)oc2C)c2ccsc12)C(=O)O	126 to 128
CC(C)(C)OC(=O)N(Cc1ccc(C(=O)NCC(=N)NO)cc1)c1ccc(C(C)(C)C)cc1	154 to 156
O=C(O)c1cc(-n2c(-c3ccccc3)cc3c2CCc2cc(Cl)ccc2-3)ccc1O	249 to 251
CCc1nc2c(N)nc(C)c(C)c2n1CCOCCNC(=O)C1CCCCC1	170 to 172
N#Cc1ccc(C(=O)Cl)c(CCl)c1	44 to 44.5
COc1cc(-c2nc(NCC(C)C)c3c(C)c(C#N)sc3n2)cc(OC)c1OC	182 to 184
CCOC(=O)CCC1CCCN2CCc3c([nH]c4ccccc34)C12 (configuration not stated)	72 to 74
CN1Cc2c(Cl)ncn2-c2cccnc2C1=O	247 to 248
CCC1C=C2NC(=O)CC[C@]2(C)[C@H]2CC[C@]3(C)[C@@H]([C@H](C)CCCC(C)C)CC[C@H]3[C@H]12 (some centres not stated)	147 to 149
CC(C)C1(C)NC(c2ncccc2C#N)=NC1=O (configuration not stated)	144 to 148
O=C(O)CCc1oc(-n2cnc3ccccc32)nc1-c1ccc(C(F)(F)F)cc1	224 to 226
CCOC(=O)CCCNC1N=C(c2ccccc2Cl)c2c(cn(C)c2C)N(C)C1=O (configuration not stated)	105 to 107
COC(=O)c1c(OC)ccc2ccccc12	175 to 176
Cc1cccc(C)c1Nc1nc(N)ns1	180
CCN1CC(=O)N(CC)c2cc(Nc3ncc(Cl)c(Nc4ccc(OC)cc4-n4cccn4)n3)c(OC)cc2C1	97 to 100

SMILES	melting point [°C]
COc1ccc2c(c1)CCC1=C2CCC2(C)C(=O)CCC12 (configuration not stated)	110 to 120
C[C@H](C#Cc1ccc(Cc2cc3ccccc3s2)s1)N(O)C(N)=O	157 to 159
O=C1NC(=O)C(c2ccccc2)=C1Nc1cccc(Cl)c1	188
CC(C)C(NC(=O)C(Cc1ccccc1)NC(=O)c1ccc(NS(=O)(=O)c2ccc(C(C)(C)C)cc2)cc1)C(=O)Nc1n[nH]c(=S)s1 (configuration not stated)	140 to 144
CC(=O)c1ccc2c(c1)c(=O)c(C(=O)O)cn2Cc1ccc(F)cc1	206 to 208
CS(=O)(=O)c1ccc2c(c1)[nH]c(=O)c(=O)n2C1CCCCC1	> 300
CC(=NNC=O)c1ccncc1Cl	175
Nc1c(Cl)cc(C(F)(F)F)c(Cl)c1Cl	37 to 39
C=CC(=O)NCCOC(C)(C)OCCNC(=O)C=C	94 to 95
COC(=O)c1ccc(C[C@@H]2COc3ccc(OCc4ccc5ccccc5n4)cc3[C@H]2O)cc1 (relative stereo)	138 to 140
CCOc1nn(Cc2ccccc2OCc2nc(-c3ccccc3)oc2C)cc1CCC(=O)O	127 to 128
CN(Cc1cc(C(F)(F)F)cc(C(F)(F)F)c1)C(=O)c1c(Cl)nc2ccccc2c1-c1ccccc1	147 to 148
CN(C)S(=O)(=O)c1ccccc1-c1cnc(N)c(C(=O)Nc2cccnc2)n1	222 to 223
CCOC(=O)c1n[nH]cc1-c1ccccc1	164 to 165
CCCCCCCN(CC1(c2ccccc2)CCCC1)C(=O)Nc1c(C(C)C)cccc1C(C)C	95 to 97
CC(=O)Nc1ccc(C)c(C=O)n1	202
CC(=O)c1c(C)[nH]c(C2CCCCC2)c1C	186 to 188
COc1cc2ncc(C#N)c(Nc3ccc4sc(C)nc4c3)c2cc1OC	118 to 120
O=C(NC(=O)c1c(F)cccc1F)Nc1cc(C(F)(F)F)ccn1	167 to 169
Oc1nc(-c2ccc(Cl)cc2)nc2c1CCC2	282
Cc1nn(-c2ccccn2)cc1COc1ccc(CO)cc1	83 to 84
COc1ccc2c(c1)c1c(n2CCc2noc(-c3ccccc3)n2)CCN(C)C1	77.5 to 79
CC(C)N(Cc1ccc2cc(NC(=O)c3ccc(-c4ccc(Cl)cc4)nc3)ccc2n1)C(C)C	201 to 203
O=C(c1ccco1)c1cnn2c(-c3cccc(N4CCCC4=O)c3)ccnc12	210 to 211
COc1cccc2c1C(=O)c1ccccc1C21CCN(C)CC1	170 to 172

SMILES	melting point [°C]
COC(=O)c1ccc2c(C(C(=O)NS(=O)(=O)c3ccc(C)cc3OC)c3ccc4c(c3)OCO4)cn(C)c2c1 (configuration not stated)	184 to 185
COc1ccnc(CCc2nc3cc(-c4ccc(S(=O)(=O)N5CCN(C)CC5)cc4)cnc3[nH]2)c1	193 to 195
Cc1c(NC(=O)OCc2ccccc2)cccc1C(C[N+](=O)[O-])c1c[nH]c2ccc(N3CCOCC3)cc12 (configuration not stated)	140
c1ccc(COc2cccc3c2NCC3)cc1	58 to 60
Cc1cc(C2(C(F)(F)F)CC2(C#N)C#N)ccc1NC(=O)c1cccc(I)c1C(=O)NC(C)C (configuration not stated)	218 to 221
COc1cc(COc2nn(-c3ccccc3)cc2C=O)ccc1OCc1nc(-c2cccc(OS(C)(=O)=O)c2)oc1C	146 to 148
Brc1ccc(-c2cn([C@H]3CN4CCC3CC4)nn2)cc1	158
COc1cc(C(F)(F)F)nc2c(N3CCC4(CC3)OCCO4)ccc(F)c12	101 to 103
CCCCCCCC(=O)Nc1ccc(OCC(O)CNC(C)C)c(C#N)c1 (configuration not stated)	116 to 118
CC1(C)SCN(CCCCN2CCN(c3nc4ccccc4s3)CC2)C1=O	99.5 to 100
CCOc1ccccc1C(=O)NC(=O)NC1CN2CCC1CC2 (configuration not stated)	198 to 199
[N-]=[N+]=NCc1cc(C(F)(F)F)cc(C(F)(F)F)c1	30 to 32
COc1cc(C(=O)c2ccccc2F)cc([N+](=O)[O-])c1O	127 to 129
O=c1cc(NCCN2CCN(c3ncccn3)CC2)cn[nH]1	199 to 201
CCOC(=O)C1=C(COCCNS(=O)(=O)c2ccc(Cl)nc2)NC(C)=C(C(=O)OC)C1c1ccccc1Cl (configuration not stated)	140
CCc1noc(-c2cn(-c3ccc(OCc4ccccc4)cc3)cn2)n1	171 to 172
CCCC(Cc1ccccc1)c1nc2c([nH]1)c(=O)n(CCC)c(=O)n2CCC (configuration not stated)	158 to 160
COc1ccc2c(c1)OCC(c1ccc(F)cc1)C2c1ccc(O)cc1 (configuration not stated)	164 to 165
O=C1N(N2CCOCC2)c2ccccc2C1(Cc1ccccc1)c1ccccc1 (configuration not stated)	159 to 161
N#Cc1c(-c2ccccc2)c(-c2ccccc2)nn(CCCO)c1=O	156 to 157
CCOC(=O)C1=C(N)N=C(OCC)C(C(=O)OCC)C1c1cccc(C(=O)OCC)c1 (configuration not stated)	87
ClCc1coc(C=C(c2ccccc2)c2ccccc2)n1	107 to 108
CS(=O)(=O)Nc1cc2occ(N3CCCC3=O)c(=O)c2cc1Oc1ccccc1	192 to 193
CC1(C)OC(=O)C(=C2NCCN2)C(=O)O1	181 to 182
O=[N+]([O-])c1cc(F)c(N2CCNCC2)cc1Cl	91.5

SMILES	melting point [°C]
O=[N+]([O-])c1ccc(S(=O)(=O)CCO)cc1O	140 to 142
O=C(NS(=O)(=O)c1cc(C(F)(F)F)ccc1Cl)c1cn2cc(Br)cnc2n1	> 250
O=S(=O)(c1ccccc1)c1c(-c2ccc(Cl)cc2)[nH]c(Br)c1Br	> 200
Fc1ccc2nc(S)oc2c1F	209 to 210
COc1ccc(-c2cc(CO)c(=O)n(Cc3ccc(Cl)cc3)n2)cc1F	165
CC(=O)N1CCN(c2cccc(O)c2)CC1	186
Cc1oc(-c2ccc(S(C)(=O)=O)cc2)c(Oc2ccc(Cl)cc2)c(=O)c1Cl	274
CCOC(=O)C1=C(C)NC(C)=C(C(=O)OCC)C1c1ccccc1/C=C/C(=O)OC1CCCCC1C (configuration not stated)	165 to 166
CCCCOC(=O)COc1ccc(C(=O)Nc2cc(F)ccc2Sc2ccccc2-c2nnn[nH]2)cc1	177 to 179
CN(C1CCN(Cc2csnn2)CC1)S(=O)(=O)c1ccc(Nc2nccc(Nc3ccc(F)c(F)c3)n2)cc1	172 to 173
C[C@H]1CN(C(=O)OC(C)(C)C)S(=O)(=O)O1	123 to 125
C[C@H]1[C@@H](O)C(C)(C)C(=O)N1c1ccc(C#N)c(C(F)(F)F)c1	120 to 121
CCCc1c(OCCCSCCO)ccc(C(C)=O)c1O	72 to 74
O=C(CCCCCn1ccnn1)NC[C@@H]1CN2C(=O)C[C@H]2O1 (racemic)	108 to 109
CCOC(=O)c1cnn(C)c1C(=O)Nc1ccc2nc(N3CCOCC3)nn2c1	234
CC(=O)Nc1cccc(OC2CCNCC2)c1	164 to 165
Cc1ccccc1Nc1nc(O)c2sccc2n1	243 to 245
CCCCc1ccc(OC)c(-c2csc(N)n2)c1	48
Nc1ncc(CCC2CCCC2)s1	77 to 78
O=C(O)C1Cc2cc3c(-c4ccccc4F)noc3cc2O1 (configuration not stated)	194 to 196
COc1cccc(CNC(=O)c2cc3c(=O)n(CCOc4ccc(Br)cc4)c(=O)n(C)c3s2)c1	165 to 167
CC(C)(C)OC(=O)N1CCC(C(=O)Nc2ccccc2Oc2ccc(Cl)cc2Cl)CC1	120 to 121
